Measurements reported in patent publication US7273856B2, “Linear basic compounds having NK-2 antagonist activity and formulations thereof” (Menarini Ricerche S.P.A., priority 2001, dated 2007).
Where a name gives a salt, the structure may show the parent alone. Read-outs that look alike come from different tables or passages of the source.

Target: T1, human NK-2 receptor (Homo sapiens, UniProt P21452)
T1 construct: expressed in transfected cells; host or cells: CHO (Chinese hamster ovary) cells, membranes
T1 sequence (P21452 1-398): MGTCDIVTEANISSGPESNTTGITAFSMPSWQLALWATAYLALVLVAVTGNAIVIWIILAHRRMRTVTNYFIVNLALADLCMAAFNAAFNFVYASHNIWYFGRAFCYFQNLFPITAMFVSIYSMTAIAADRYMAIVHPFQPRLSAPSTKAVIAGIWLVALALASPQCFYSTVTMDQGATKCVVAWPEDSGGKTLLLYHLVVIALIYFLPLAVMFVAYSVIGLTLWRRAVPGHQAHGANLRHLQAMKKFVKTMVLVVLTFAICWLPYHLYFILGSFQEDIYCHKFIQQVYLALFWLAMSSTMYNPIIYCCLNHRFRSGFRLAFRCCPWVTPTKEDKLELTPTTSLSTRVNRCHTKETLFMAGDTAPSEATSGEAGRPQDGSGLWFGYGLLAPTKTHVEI
Assay: binding test, affinity for the human NK-2 receptor, competition with [125I]NKA on transfected CHO cell membranes
Experimental: The evaluation of the antagonist activity on NK-2 receptors has been assessed by binding and functional tests according to that already described in literature in relation to NK-2 antagonists.
The test substances have been tested within a concentration range from 0.01 nM to 10 nM. At the end of the incubation time (30 min, 20° C.) the samples have been filtered and radioactivity has been determined using a gamma-counter.

[1] = CHO cell membranes transfected with NK-2 receptor of human ileum, [125I]NKA 100 pM, 30 min, 20° C.

Ki [1] [nM] | Compound | other results
1.26 | O=C(NC1(C(=O)N[C@H](Cc2ccccc2)C(=O)NCC2CCN(CC3CCOCC3)CC2)CCCC1)c1ccc2ccccc2c1 [Example 151, Naphthalene-2-carboxylic acid [1-(2-phenyl-1R-{[1-(tetrahydro-pyran-4-ylmethyl)-piperidin-4-ylmethyl]-carbamoyl}-ethylcarbamoyl)-cyclopentyl]-amide] | –
0.251 | Cc1ccc2cc(C(=O)NC3(C(=O)N[C@H](Cc4ccccc4)C(=O)NCC4CCN(CC5CCOCC5)CC4)CCCC3)oc2c1 [Example 125, 6-Methyl-benzofuran-2-carboxylic acid [1-(2-phenyl-1R-{[1-(tetrahydro-pyran-4-ylmethyl)-piperidin-4-ylmethyl]-carbamoyl}-ethylcarbamoyl)-cyclopentyl]-amide] | –
0.1 | CC(C)(C)c1cccc2cc(C(=O)NC3(C(=O)N[C@H](Cc4ccccc4)C(=O)NCC4CCN(CC5CCOCC5)CC4)CCCC3)oc12 [Example 124, 7-tert-Butyl-benzofuran-2-carboxylic acid [1-(2-phenyl-1R-{[1-(tetrahydro-pyran-4 ylmethyl)-piperidin-4-ylmethyl]-carbamoyl}-ethylcarbamoyl)-cyclopentyl]-amide] | –
0.631 | NC1(C(=O)N2CCC(CNC(=O)[C@@H](Cc3ccccc3)NC(=O)C3(NC(=O)c4cc5ccccc5s4)CCCC3)CC2)CCCC1 [Example 63, Benzo[b]thiophene-2-carboxylic acid [1-(1(R)-{[1-(1-amino-cyclopentanecarbonyl)piperidin-4-ylmethyl]-carbamoyl}-2-phenyl-ethylcarbamoyl)-cyclopentyl]-amide] | –
1 | O=C(NC1(C(=O)N[C@H](Cc2ccccc2)C(=O)NCC2CCN(CC3COCOC3)CC2)CCCC1)c1cc2cc(Cl)ccc2o1 [Example 91, 5-Chloro-benzofuran-2-carboxylic acid (1-{1(R)-[(1-[1,3]dioxan-5-ylmethyl-piperidin-4-ylmethyl)-carbamoyl]-2-phenyl-ethylcarbamoyl}-cyclopentyl)-amide] | –
0.631 | CN1CCN(C(=O)[C@@H]2CC[C@H](NC(=O)[C@@H](Cc3ccccc3)NC(=O)C3(NC(=O)c4cc5ccccc5s4)CCCC3)C2)CC1 [Example 33, N^α[N^α(benzo[b]thiophen-2-ylcarbonyl)-1-aminocyclopentan-1-carboxy]-D-phenylalanine amide-N-[(1S,3R)-3-(4-(methyl)piperazin-1-yl)carbonyl)cyclopentane] | –
1.26 | N#CCN1CCC(CCNC(=O)[C@@H](Cc2ccccc2)NC(=O)C2(NC(=O)c3cc4ccccc4s3)CCCC2)CC1 [Example 87, Benzo[b]thiophene-2-carboxylic acid (1-{1(R)-[2-(1-cyanomethyl-piperidin-4-yl)-ethylcarbamoyl]-2-phenyl-ethylcarbamoyl}-cyclopentyl)-amide TFA salt] | –
– | CC[C@@](C)(NC(=O)c1cc2ccccc2s1)C(=O)N[C@H](Cc1ccccc1)C(=O)N[C@H]1CC[C@@H](C(=O)N[C@H]2CCCC[C@@H]2N)C1.O=C(O)C(F)(F)F [Example 14, N^γ{N^α[N^α(benzo[b]thiophen-2-ylcarbonyl)-(R)-α-methyl-α-ethylglycyl]-D-phenylalanyl}-(1R,3S)3-amino cyclopentane-1-carboxylic-acid-N-((1S,2S)-2-aminocyclohexyl) amide trifluoroacetate salt] | pKi [1]: 9.9
0.1 | O=C(NC1(C(=O)N[C@H](Cc2ccccc2)C(=O)NCCCN2CCOCC2)CCCCC1)c1cc2ccc(Br)cc2s1 [Example 109, 6-Bromo-benzo[b]thiophene-2-carboxylic acid {1-[1R-(3-morpholin-4-yl-propylcarbamoyl)-2-phenyl-ethylcarbamoyl]-cyclohexyl}-amide] | –
1.58 | CC(C)N1CCC(CNC(=O)[C@@H](Cc2ccccc2)NC(=O)C2(NC(=O)c3cc4ccccc4s3)CCCC2)CC1 [Example 70, Benzo[b]thiophene-2-carboxylic acid (1-{1-(R)-[(1-isopropyl-piperidin-4-ylmethyl)-carbamoyl]-2-phenyl-ethylcarbamoyl}-cyclopentyl)-amide] | –
0.398 | COc1ccc2oc(C(=O)NC3(C(=O)N[C@H](Cc4ccccc4)C(=O)NCC4CCN(CC5CCOCC5)CC4)CCCC3)cc2c1 [Example 146, 5-Methoxy-benzofuran-2-carboxylic acid [1-(2-phenyl-1-{[1R-(tetrahydro-pyran-4-ylmethyl)-piperidin-4-ylmethyl]-carbamoyl}-ethylcarbamoyl)-cyclopentyl]-amide] | –
0.0501 | NC1CCCCC1NC(=O)C1CCCC(NC(=O)C(Cc2ccccc2)NC(=O)C2(NC(=O)c3cc4ccccc4s3)CCCCC2)C1 (single isomer, unassigned) [Example 28] | –
1.58 | C[C@@H]1CN(C(=O)CCNC(=O)[C@@H](Cc2ccccc2)NC(=O)C2(NC(=O)c3cc4ccccc4s3)CCCC2)C[C@H](C)N1 [Example 56, Benzo[b]thiophene-2-carboxylic acid (1-{1(R)-[3-(3,5-cis-dimethylpiperazin-1-yl)-3-oxo-propylcarbamoyl]-2-phenyl-ethylcarbamoyl}-cyclopentyl)-amide TFA salt] | –
0.0631 | N[C@@H]1CCCC[C@H]1NC(=O)[C@@H]1C[C@@H](NC(=O)[C@@H](Cc2ccccc2)NC(=O)C2(NC(=O)c3cc4ccccc4s3)CCCCC2)CN1 [Example 27, N^γ{N^α[N^α(benzo[b]thiophen-2-ylcarbonyl)-1-aminocyclohexane-1-carboxy]-D-phenylalanil}-(L-(4R)amino-proline-N-(1R,2R)-aminocyclohexyl) amide] | –
0.501 | Cc1ccc(C=CC(=O)NC2(C(=O)NC(Cc3ccccc3)C(=O)NC3CCC(C(=O)NC4CCCCC4N(C)C)C3)CCCC2)cc1 [Example 10, N^γ{N^α[N^α(4-methyl-cinnamoyl)-1-aminocyclopentan-1-carboxy]-D-phenylalanyl}-(1R,3S)-3-aminocyclopentane-1-carboxylic-acid-N-((1S,2S)-2-dimethylaminocyclohexyl)amide hydrochloride salt] | –
0.126 | CC(C)(C)c1ccc2oc(C(=O)NC3(C(=O)N[C@H](Cc4ccccc4)C(=O)NCC4CCN(CC5CCOCC5)CC4)CCCC3)cc2c1 [Example 128, 5-tert-Butyl-benzofuran-2-carboxylic acid [1-(2-phenyl-1R-{[1-(tetrahydro-pyran-4-ylmethyl)-piperidin-4-ylmethyl]-carbamoyl}-ethylcarbamoyl)-cyclopentyl]-amide] | –
0.0398 | O=C(NC1(C(=O)N[C@H](Cc2ccccc2)C(=O)NCC2CCN(CC3CCOCC3)CC2)CCCC1)c1cc2cccc(Br)c2s1 [Example 131, 7-Bromo-benzo[b]thiophene-2-carboxylic acid [1-(2-phenyl-1R-{[1-(tetrahydro-pyran-4-ylmethyl)-piperidin-4-ylmethyl]-carbamoyl}-ethylcarbamoyl)-cyclopentyl]-amide] | –
– | Cc1ccc2sc(C(=O)NC3(C(=O)N[C@H](Cc4ccccc4)C(=O)NCC4CCN(CC5CCOCC5)CC4)CCCC3)cc2c1 [Example 138, 5-Methyl-benzo[b]thiophene-2-carboxylic acid [1-(2-phenyl-1R-{[1-(tetrahydro-pyran-4-ylmethyl)piperidin-ylmethyl]-carbamoyl}-ethylcarbamoyl)-cyclopentyl]-amide] | pKi [1]: 9.8
0.0501 | NC1CCCCC1NC(=O)C1CCCC(NC(=O)[C@H](Cc2ccccc2)NC(=O)C2(NC(=O)c3cc4ccccc4s3)CCCC2)C1 (stereo partly drawn) [Example 26, acid-3-cis-N^γ{N^α[N^α(benzo[b]thiophen-2-ylcarbonyl)-1-aminocyclopentane-1-carboxy]-L-phenylalanil}aminocyclohexane-1-carboxylic-N-(2-cis-aminocyclohexyl) amide] | –
0.316 | CN(C)[C@H]1CCCC[C@@H]1NC(=O)[C@@H]1CC[C@H](NC(=O)[C@@H](Cc2ccccc2)NC(=O)C2(NC(=O)c3ccc(-c4ccccc4)cc3)CCCC2)C1 [Example 12, N^γ{N^α[N^α(biphen-4-ylcarbonyl)-1-aminocyclopentan-1-carboxy]-D-phenylalanyl}-(1R,3S)-3-aminocyclopentane-1-carboxylic-acid-N-((1S,2S)-2-dimethylaminocyclohexyl)amide hydrochloride salt] | –
– | N[C@H]1CCCC[C@@H]1NC(=O)[C@@H]1CC[C@H](NC(=O)[C@@H](Cc2ccccc2)NC(=O)C2(NC(=O)c3cc4ccccc4o3)CCCC2)C1.O=C(O)C(F)(F)F [Example 6] | pKi: 9.7
0.398 | O=C(C=Cc1ccc(Br)c(Br)c1)NC1(C(=O)N[C@H](Cc2ccccc2)C(=O)NCCCN2CCOCC2)CCCC1 [Example 50, 1-[3-(3,4-dibromophenyl)-acryloylamino]-cyclopentanecarboxylic acid [1-(3-morpholin-4-yl-propylcarbamoyl)-2-(R)-phenyl-ethyl]-amide] | –
1.26 | O=C(NC1(C(=O)N[C@H](Cc2ccccc2)C(=O)NC2CCN(CCC3CCOCC3)CC2)CCCC1)c1cc2ccccc2s1 [Example 68, Benzo[b]thiophene-2-carboxylic acid [1-(2-phenyl-1(R)-{1-[2-(tetrahydro-pyran-4-yl)-ethyl]-piperidin-4-ylcarbamoyl}-ethylcarbamoyl)-cyclopentyl]-amide TFA salt] | –
